Measured values: patent US11752149B2, “Muscarinic acetylcholine M1 receptor antagonists” (Pipeline Therapeutics, Inc., priority 2019, dated 2023)
Like-named read-outs stand apart in the source and are kept apart here.

Tests used:
Assay type in all cases: cell-based
human M1 receptor = human M1 receptor (Homo sapiens (Human), UniProt P11229); experiment: In vitro functional assay of muscarinic acetylcholine receptor activity, aequorin calcium flux, reversal of EC80 acetylcholine
Description: (§1) CHO-K1 cells stably expressing human M1 receptor with aequorin (Perkin Elmer) were grown in F12 media (Gibco) containing 10% FBS (ATCC), 0.4 mg/mL geneticin (Sigma-Aldrich) and 0.25 mg/mL Zeocin (Invitrogen). Cells were grown as per the manufacturer's protocol. For compound testing, cells were grown to confluency and detached gently with Accutase (Sigma-Aldrich) followed by centrifugation for 5 min at 150×g. Cells were then re-suspended in assay buffer (i.e. DMEM/F-12 HEPES without phenol red (Invitrogen) with 0.1% BSA (Sigma-Aldrich)) at a density of 5×10^6 cells/ml. Under sterile conditions, 5 μM coelenterazine (Invitrogen) was added to the cells, mixed, then incubated at room temperature protected from light, with gentle agitation, for 4 h.
(§2) Primary compound plates were prepared in 100% DMSO in opaque 96-well plates (VWR) and serially diluted in half log increments. Secondary compound plates were prepared at 3× concentration in assay buffer. Compounds were added to white, clear bottom tissue culture treated 96-well plates (Fisher Scientific). Coelenterazine-loaded cells were then added at 5×10^5 cells/well.
(§3) Compounds and cells were incubated at room temperature for 30 min in the dark. Acetylcholine at the EC80 concentration was added and calcium flux measured using a FlexStation 3 (Molecular Devices). Sigmoidal dose-response curves were generated by measuring luminescence over 40 sec and calculating the area under the curve. Dose response curves and IC50 values were generated using Prism (GraphPad). Compounds were tested at a final concentration range of 100 pM to 10 μM in 0.1% DMSO.

human M2 receptor = human M2 receptor (Homo sapiens (Human), UniProt P08172); experiment: Aequorin calcium flux assay, reversal of EC80 acetylcholine response, M2
Chain of human M2 receptor (P08172 whole entry): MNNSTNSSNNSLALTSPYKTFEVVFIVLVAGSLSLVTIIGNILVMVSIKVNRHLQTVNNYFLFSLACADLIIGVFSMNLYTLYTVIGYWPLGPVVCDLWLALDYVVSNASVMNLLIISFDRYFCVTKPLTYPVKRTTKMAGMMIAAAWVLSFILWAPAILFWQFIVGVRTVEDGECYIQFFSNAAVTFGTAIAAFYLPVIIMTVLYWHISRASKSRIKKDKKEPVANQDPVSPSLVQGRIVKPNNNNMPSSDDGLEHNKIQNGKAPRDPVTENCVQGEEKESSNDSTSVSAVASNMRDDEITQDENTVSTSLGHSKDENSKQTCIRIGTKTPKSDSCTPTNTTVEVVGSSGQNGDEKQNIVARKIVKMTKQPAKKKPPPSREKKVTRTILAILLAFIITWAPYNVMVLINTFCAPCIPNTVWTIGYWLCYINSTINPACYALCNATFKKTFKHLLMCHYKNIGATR
Description: as §1, §2, §3
(§4) CHO-K1 cells stably expressing human M2, M3 and M4 receptors, respectively, with aequorin (Perkin Elmer) were used to assess a test compound's ability to dose-dependently reverse the EC80 acetylcholine response. The IC50 of the compounds was calculated from the dose response curve.

human M3 receptor = human M3 receptor (Homo sapiens (Human), UniProt P20309); experiment: Aequorin calcium flux assay, reversal of EC80 acetylcholine response, M3
Chain of human M3 receptor (P20309 whole entry, looked up): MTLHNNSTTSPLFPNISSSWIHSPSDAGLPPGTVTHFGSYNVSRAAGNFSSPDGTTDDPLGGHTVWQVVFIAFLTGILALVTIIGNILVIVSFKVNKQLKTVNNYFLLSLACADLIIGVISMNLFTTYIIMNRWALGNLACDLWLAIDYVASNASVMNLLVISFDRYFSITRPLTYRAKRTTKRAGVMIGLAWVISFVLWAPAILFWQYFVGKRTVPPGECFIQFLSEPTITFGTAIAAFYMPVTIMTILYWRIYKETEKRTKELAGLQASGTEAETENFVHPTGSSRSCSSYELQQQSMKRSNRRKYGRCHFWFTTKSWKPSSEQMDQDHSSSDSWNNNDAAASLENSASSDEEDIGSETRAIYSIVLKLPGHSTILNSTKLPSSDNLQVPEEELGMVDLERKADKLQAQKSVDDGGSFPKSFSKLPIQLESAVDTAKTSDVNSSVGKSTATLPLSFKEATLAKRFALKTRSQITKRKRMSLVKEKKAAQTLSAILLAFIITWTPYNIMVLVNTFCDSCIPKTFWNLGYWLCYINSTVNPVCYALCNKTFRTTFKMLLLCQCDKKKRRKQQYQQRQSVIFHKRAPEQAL
Description: as §1, §2, §3, §4

human M4 receptor = human M4 receptor (Homo sapiens (Human), UniProt P08173); experiment: Aequorin calcium flux assay, reversal of EC80 acetylcholine response, M4
Chain of human M4 receptor (P08173 whole entry): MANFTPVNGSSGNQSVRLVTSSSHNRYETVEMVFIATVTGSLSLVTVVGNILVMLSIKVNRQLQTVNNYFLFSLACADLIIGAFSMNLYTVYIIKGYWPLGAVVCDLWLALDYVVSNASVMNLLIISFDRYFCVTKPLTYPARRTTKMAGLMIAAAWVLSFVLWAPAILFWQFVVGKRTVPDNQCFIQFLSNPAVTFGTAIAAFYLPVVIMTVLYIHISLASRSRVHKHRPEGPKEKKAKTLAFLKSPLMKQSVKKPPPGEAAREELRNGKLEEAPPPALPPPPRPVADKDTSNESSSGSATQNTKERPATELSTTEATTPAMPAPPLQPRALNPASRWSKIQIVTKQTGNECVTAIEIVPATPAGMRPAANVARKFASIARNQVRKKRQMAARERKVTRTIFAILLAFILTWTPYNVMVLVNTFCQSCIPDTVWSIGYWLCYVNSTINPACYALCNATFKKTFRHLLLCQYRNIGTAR
Description: as §1, §2, §3, §4

[1] = CHO-K1 cells expressing human M1 receptor with aequorin, acetylcholine at EC80, read-out: M1 IC50
[2] = CHO-K1 cells expressing human M2 receptor with aequorin, acetylcholine at EC80, read-out: M2 IC50

Chain of human M1 receptor (P11229 whole entry): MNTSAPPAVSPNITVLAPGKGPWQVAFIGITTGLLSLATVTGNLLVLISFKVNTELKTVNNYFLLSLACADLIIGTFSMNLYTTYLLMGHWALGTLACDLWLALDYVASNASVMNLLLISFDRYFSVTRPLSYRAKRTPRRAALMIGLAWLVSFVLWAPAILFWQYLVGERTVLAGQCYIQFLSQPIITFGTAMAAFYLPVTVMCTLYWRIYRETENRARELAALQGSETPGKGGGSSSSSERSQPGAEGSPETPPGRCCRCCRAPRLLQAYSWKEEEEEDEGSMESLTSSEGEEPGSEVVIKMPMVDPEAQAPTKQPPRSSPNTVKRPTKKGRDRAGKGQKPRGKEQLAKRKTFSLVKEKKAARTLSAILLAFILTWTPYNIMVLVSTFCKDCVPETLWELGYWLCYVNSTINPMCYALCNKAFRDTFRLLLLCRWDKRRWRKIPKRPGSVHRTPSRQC

## N#Cc1ccc(N2C3CCC2CN(C(=O)CCS(=O)(=O)c2ccccc2[C@H]2CC2(F)F)C3)nc1 (single isomer, unassigned) [Example 35]
Human M1 receptor; [1]
  IC50: < 10 nM
Human M2 receptor
  IC50: 10 to 100 nM
Human M3 receptor; CHO-K1 cells expressing human M3 receptor with aequorin, acetylcholine at EC80, read-out: M3 IC50
  IC50: 100 to 1000 nM
Human M4 receptor; CHO-K1 cells expressing human M4 receptor with aequorin, acetylcholine at EC80, read-out: M4 IC50
  IC50: 10 to 100 nM

## COc1cccc(S(=O)(=O)CCC(=O)N2CC3CCC(C2)N3c2ccc(C#N)cn2)c1 [Example 2, 6-(3-(3-((3-methoxyphenyl)sulfonyl)propanoyl)-3,8-diazabicyclo[3.2.1]octan-8-yl)nicotinonitrile]
Human M1 receptor
  IC50: 10 to 100 nM
Human M2 receptor; [2]
  IC50: > 10000 nM
Human M3 receptor
  IC50: 100 to 1000 nM
Human M4 receptor
  IC50: 100 to 1000 nM

## COc1cc(S(=O)(=O)CCC(=O)N2CC3CCC(C2)N3c2ccc(C#N)cn2)ccc1F [Example 3, 6-(3-(3-((4-fluoro-3-methoxyphenyl)sulfonyl)propanoyl)-3,8-diazabicyclo[3.2.1]octan-8-yl)nicotinonitrile]
Human M1 receptor; [1]
  IC50: < 10 nM
Human M2 receptor; [2]
  IC50: > 10000 nM
Human M3 receptor
  IC50: 100 to 1000 nM
Human M4 receptor
  IC50: 100 to 1000 nM

## Cc1c(F)cccc1S(=O)(=O)CCC(=O)N1CC2CCC(C1)N2c1ccc(C#N)cn1 [Example 24, 6-{3-[3-(3-fluoro-2-methylbenzenesulfonyl)propanoyl]-3,8-diazabicyclo [3.2.1]octan-8-yl}pyridine-3-carbonitrile]
Human M1 receptor; [1]
  IC50: < 10 nM
Human M2 receptor; [2]
  IC50: 1000 to 10000 nM
Human M3 receptor
  IC50: 100 to 1000 nM
Human M4 receptor
  IC50: 100 to 1000 nM
